Assay in all cases: Antibacterial MIC, standard microtitration
Holding throughout (format): cell-based

The subject of one experiment is E. Coli MC4100. To be noted: Escherichia coli, Gram negative, read-out: Minimum Inhibitory Concentrations. Here is the method:
(§1) The compounds of the present invention were tested against an assortment of gram positive and gram negative organisms using standard microtitration techniques (Cohen, et. al. Antimicrobial Agents Chemother. 1985, 28, 766; Heifetz, et. al. Antimicrobial Agents Chemother. 1974, 6, 124) and the results are given in Table 1.

In the next experiment the test system is B. subtilis RB1. To be noted: Bacillus subtilis, Gram positive, read-out: Minimum Inhibitory Concentrations. Here is the method: as §1
For a further experiment, the system named is E. coli Tol C. Particulars: Escherichia coli, read-out: Minimum Inhibitory Concentrations. Here is the method:
as §1

The subject of the next experiment is E. coli B90. To be noted: Escherichia coli, Gram negative, read-out: Minimum Inhibitory Concentrations. On the procedure: as §1
Another experiment concerns S. aureus 29213. Particulars: Staphylococcus aureus, Gram positive, read-out: Minimum Inhibitory Concentrations. Here is the method:
as §1

For another experiment, the system named is S. pyogenes C203. To be noted: Streptococcus pyogenes, Gram positive, read-out: Minimum Inhibitory Concentrations. On the procedure: as §1

Values after ≈ are worked out from the molar mass of the structure shown.

Turning to `CCCc1c(O)cc2oc3cccn3c(=O)c2c1O` [Example 6, 6,8-Dihydroxy-7-propyl-9H-pyrrolo[2,1-b][1,3]benzoxazin-9-one], the MIC in the experiment on E. Coli MC4100 was > 64 µg/mL; with B. subtilis RB1, 4 µg/mL (≈ 15.4 µM); with E. coli Tol C, 2 µg/mL (≈ 7.71 µM); with E. coli B90, 4 µg/mL (≈ 15.4 µM); with S. aureus 29213 it was 2 µg/mL (≈ 7.71 µM); in the experiment with S. pyogenes C203, 4 µg/mL (≈ 15.4 µM).
Regarding `CCCc1c(O)cc2oc3cc(Cl)c(C=NO)n3c(=O)c2c1O` [Example 10, 2-Chloro-6,8-dihydroxy-9-oxo-7-propyl-9H-pyrrolo[2,1-b][1,3]benzoxazine-1-carboxaldehyde, oxime], the MIC was > 64 µg/mL in the experiment with E. Coli MC4100; 32 µg/mL (≈ 95 µM) in the experiment with B. subtilis RB1; 8 µg/mL (≈ 23.8 µM) in the experiment with E. coli Tol C; > 64 µg/mL in the experiment with E. coli B90; 32 µg/mL (≈ 95 µM) in the experiment with S. aureus 29213; 16 µg/mL (≈ 47.5 µM) in the experiment with S. pyogenes C203.
Turning to `CCCc1c(OC(C)=O)cc2oc3cc(Cl)cn3c(=O)c2c1OC(C)=O` [Example 13, 6,8-Bis(acetyloxy)-2-chloro-7-propyl-9H-pyrrolo [2,1-b][1,3]benzoxazin-9-one], the MIC in the experiment with E. Coli MC4100 was > 64 µg/mL; with B. subtilis RB1, 8 µg/mL (≈ 21.2 µM); with E. coli Tol C, 8 µg/mL (≈ 21.2 µM); in the experiment on E. coli B90, 64 µg/mL (≈ 169 µM); in the experiment on S. aureus 29213, 4 µg/mL (≈ 10.6 µM); with S. pyogenes C203, 4 µg/mL (≈ 10.6 µM).
Regarding `CCCc1c(O)cc2oc3cc(Cl)c(C=O)n3c(=O)c2c1O` [Example 9, 2-Chloro-6,8-dihydroxy-9-oxo-7-propyl-9H-pyrrolo[2,1-b][1,3]benzoxazine-1-carboxaldehyde], the MIC was > 64 µg/mL in the experiment with E. Coli MC4100; 1 µg/mL (≈ 3.11 µM) in the experiment with B. subtilis RB1; 2 µg/mL (≈ 6.22 µM) in the experiment with E. coli Tol C; 4 µg/mL (≈ 12.4 µM) with E. coli B90; 4 µg/mL (≈ 12.4 µM) in the experiment with S. aureus 29213; 4 µg/mL (≈ 12.4 µM) in the experiment on S. pyogenes C203.
